# Reference: patent publication US12577267B2, “Pyrimidine compounds for use as MAP4K1 inhibitors” (GLENMARK SPECIALITY S.A., priority 2021, dated 2026)
# Where a name gives a salt, the structure may show the parent alone. Read-outs that look alike come from different tables or passages of the source.
# Target: MAP4K-1 enzyme (Homo sapiens, UniProt Q92918)
# Assay: FRET one step binding assay (tracer displacement)
# Conditions: for inhibition at 1 µM / % Inhibition at 1 μM: 1 μM compound; for inhibition at 10 µM / % Inhibition at 10 μM: 10 μM compound
# Procedure: This is a one step binding assay based on the binding and displacement of the labeled tracer, where compound addition is followed by addition of the anti-GST tagged europium (Eu) as the donor and Alexa Fluor-labeled tracer as the acceptor.
# Test compounds were dissolved in dimethylsulfoxide (DMSO) to prepare 10.0 mM stock solutions and diluted to the desired concentration. The final concentration of DMSO in the reaction was 3% (v/v). The assay mixture was prepared by mixing 2 nM of the Eu-Anti-GST Antibody and 5 nM MAP4K-1 enzyme in the Kinase buffer containing 50 mM HEPES (pH 7.5), 10 mM MgCl2, 1 mM EGTA, 0.01% Brij-35 with or without the desired concentration of the compound. The reaction was incubated on ice for 15 min. […] After shaking for 5 min the reaction was further incubated for 1 hour at room temperature and this was kept at 4° C. and read on ARTEMIS reader as per the kit instructions (Thermo). […] The activity was calculated as percent of control reaction. IC50 values were calculated from dose response curve by nonlinear regression analysis using GraphPad Prism software.
# MAP4K-1 enzyme, sequence (Q92918 whole entry): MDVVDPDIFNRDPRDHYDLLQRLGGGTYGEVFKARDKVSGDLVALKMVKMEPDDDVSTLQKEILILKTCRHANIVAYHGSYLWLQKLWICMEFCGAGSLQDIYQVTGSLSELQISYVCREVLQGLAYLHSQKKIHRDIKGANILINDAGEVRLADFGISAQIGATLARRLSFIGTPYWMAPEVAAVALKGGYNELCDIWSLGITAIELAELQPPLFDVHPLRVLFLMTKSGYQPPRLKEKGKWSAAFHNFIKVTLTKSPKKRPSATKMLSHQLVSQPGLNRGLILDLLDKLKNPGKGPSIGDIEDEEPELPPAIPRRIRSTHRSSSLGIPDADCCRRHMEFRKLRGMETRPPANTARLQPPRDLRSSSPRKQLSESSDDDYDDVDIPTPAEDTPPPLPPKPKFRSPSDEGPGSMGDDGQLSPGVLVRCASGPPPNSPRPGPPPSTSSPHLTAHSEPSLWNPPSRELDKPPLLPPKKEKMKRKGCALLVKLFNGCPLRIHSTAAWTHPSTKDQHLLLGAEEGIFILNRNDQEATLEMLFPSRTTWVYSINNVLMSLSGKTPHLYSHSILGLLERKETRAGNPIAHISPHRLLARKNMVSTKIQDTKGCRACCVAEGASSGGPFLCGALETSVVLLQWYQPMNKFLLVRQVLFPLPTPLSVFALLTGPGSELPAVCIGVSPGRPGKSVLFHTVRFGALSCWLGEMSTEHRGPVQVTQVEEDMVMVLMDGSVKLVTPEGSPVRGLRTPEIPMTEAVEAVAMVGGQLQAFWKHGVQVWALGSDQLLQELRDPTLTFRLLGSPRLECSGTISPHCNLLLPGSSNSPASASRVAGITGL
Structure (SMILES),inhibition at 1 µM [%],inhibition at 10 µM [%],IC50 (IC50 (nM)) [nM],also measured
"COc1cc2c(cc1Nc1ncc(Cl)c(Nc3ccc(OS(=O)(=O)F)cc3P(C)(C)=O)n1)C(=O)N(C)CC2 [Example 17, 4-((5-Chloro-2-((6-methoxy-2-methyl-1-oxo-1,2,3,4-tetrahydroisoquinolin-7-yl)amino)pyrimidin-4-yl)amino)-3-(dimethylphosphoryl)phenyl sulfurofluoridatehydrochloride]",86.6,90.2,< 50,–
"COc1cc2c(cc1Nc1ncc(Cl)c(Nc3cc(OS(=O)(=O)F)ccc3P(C)(C)=O)n1)CN(C)CC2 [Example 18, 3-((5-Chloro-2-((6-methoxy-2-methyl-1,2,3,4-tetrahydroisoquinolin-7-yl)amino)pyrimidin-4-yl)amino)-4-(dimethylphosphoryl)phenyl sulfurofluoridate dihydrochloride]",87.3,83.2,< 50,–
"COc1cc2c(cc1Nc1ncc(Cl)c(Nc3ccc(NC(=O)CCl)cc3P(C)(C)=O)n1)CN(C)CC2 [Example 56, 2-Chloro-N-(4-((5-chloro-2-((6-methoxy-2-methyl-1,2,3,4-tetrahydroisoquinolin-7-yl)amino)pyrimidin-4-yl)amino)-3-(dimethylphosphoryl)phenyl)acetamide hydrochloride]",88.7,88.2,–,IC50 (read-out: IC50): < 50 nM
"COc1cc2c(cc1Nc1ncc(Cl)c(Nc3ccc(N(C)S(=O)(=O)F)cc3P(C)(C)=O)n1)CN(C)CC2 [Example 43, 4-((5-Chloro-2-((6-methoxy-2-methyl-1,2,3,4-tetrahydroisoquinolin-7-yl)amino)pyrimidin-4-yl)amino)-3-(dimethylphosphoryl)phenyl)(methyl)sulfamoylfluoride dihydrochloride]",80,80.5,< 50,–
"CP(C)(=O)c1cc(OS(=O)(=O)F)ccc1Nc1nc(Nc2cc3n(n2)CCNC3)ncc1Cl [Example 42, 4-((5-Chloro-2-((4,5,6,7-tetrahydropyrazolo[1,5-a]pyrazin-2-yl)amino)pyrimidin-4-yl)amino)-3-(dimethylphosphoryl)phenyl sulfofluoridate dihydrochloride]",84,83,< 50,–
"[2H]C([2H])([2H])Oc1cc2c(cc1Nc1ncc(Cl)c(Nc3ccc(OS(=O)(=O)F)cc3P(C)(C)=O)n1)CN(C([2H])([2H])[2H])CC2 [Example 6, 4-((5-Chloro-2-((6-methoxy-d3)-2-(methyl-d3)-1,2,3,4-tetrahydroisoquinolin-7-yl)amino)pyrimidin-4-yl)amino)-3-(dimethylphosphoryl)phenyl sulfurofluoridate dihydrochloride]",80,82,< 50,–
"CN1CCc2cc(O)c(Nc3ncc(Cl)c(Nc4ccc(OS(=O)(=O)F)cc4P(C)(C)=O)n3)cc2C1 [Example 61, 4-((5-Chloro-2-((6-hydroxy-2-methyl-1,2,3,4-tetrahydroisoquinolin-7-yl)amino)pyrimidin-4-yl)amino)-3-(dimethylphosphoryl)phenylsulfofluoridate dihydrochloride]",89.6,89.7,< 50,–
"COc1cc2c(cc1Nc1ncc(Cl)c(Nc3ccc(OS(=O)(=O)F)cc3P(C)(C)=O)n1)CN(CCF)CC2 [Example 13, 4-((5-Chloro-2-((2-(2-fluoroethyl)-6-methoxy-1,2,3,4-tetrahydroisoquinolin-7-yl)amino)pyrimidin-4-yl)amino)-3-(dimethylphos-phoryl)phenylsulfofluoridate dihydrochloride]",79.7,81,< 50,–
"CN1CCc2cc(OC(F)F)c(Nc3ncc(Cl)c(Nc4ccc(OS(=O)(=O)F)cc4P(C)(C)=O)n3)cc2C1 [Example 10, 4-((5-Chloro-2-((6-(difluoromethoxy)-2-methyl-1,2,3,4-tetrahydroqisoquinolin-7-yl)amino)pyrimidin-4-yl)amino)-3-(dimethylphosphoryl)phenyl sulfurofluoridate dihydrochloride]",92.3,89,< 50,–
"COc1cc2c(cc1Nc1ncc(Cl)c(N=S(C)(=O)c3ccccc3P(C)(C)=O)n1)CN(C)CC2 (stereo not drawn) [Example 57, (2-(N-(5-Chloro-2-((6-methoxy-2-methyl-1,2,3,4-tetrahydroisoquinolin-7-yl)amino)pyrimidin-4-yl)-S-methylsulfonimidoyl)phenyl)dimethylphosphine oxide]",83,79.3,–,IC50 (read-out: IC50): 50 to 100 nM
"COc1cc2c(cc1Nc1ncc(Cl)c(Nc3ccc(OCC(F)F)cc3P(C)(C)=O)n1)CN(C)CC2 [Example 46, (2-((5-Chloro-2-((6-methoxy-2-methyl-1,2,3,4-tetrahydroisoquinolin-7-yl)amino)pyrimidin-4-yl)amino)-5-(2,2-difluoroethoxy)phenyl) dimethylphosphine oxide]",73.6,73.9,–,IC50 (read-out: IC50): < 50 nM
"COc1cc2c(cc1Nc1ncc(Cl)c(Nc3c(F)cc(OS(=O)(=O)F)cc3P(C)(C)=O)n1)CN(C)CC2 [Example 14, 4-((5-Chloro-2-((6-methoxy-2-methyl-1,2,3,4-tetrahydroisoquinolin-7-yl)amino)pyrimidin-4-yl)amino)-3-(dimethylphosphoryl)-5-fluorophenylsulfurofluoridate dihydrochloride]",89.7,93.3,< 50,–
"COc1cc2c(cc1Nc1ncc(Cl)c(Nc3cc(OS(=O)(=O)F)ccc3P(C)(C)=O)n1)CN(C)C(C)C2 (single isomer, unassigned; isomer 2) [Example 36, 3-((5-Chloro-2-((6-methoxy-2,3-dimethyl-1,2,3,4-tetrahydroisoquinolin-7-yl)amino)pyrimidin-4-yl)amino)-4-(dimethylphosphoryl)phenyl sulfofluoridate dihydrochloride (Isomer 2)]",–,–,–,IC50: < 50 nM; % Inhibition at 1 μM (1 µM): 85.29%; % Inhibition at 10 μM (10 µM): 83.76%
"COc1cc2c(cc1Nc1ncc(Cl)c(Nc3cc(F)c(OS(=O)(=O)F)cc3P(C)(C)=O)n1)CN(C)CC2 [Example 27, 4-((5-Chloro-2-((6-methoxy-2-methyl-1,2,3,4-tetrahydroisoquinolin-7-yl)amino)pyrimidin-4-yl)amino)-5-(dimethylphosphoryl)-2-fluorophenyl sulfofluoridate dihydrochloride]",81.1,82.6,< 50,–
"COc1cc2c(cc1Nc1ncc(Cl)c(Nc3ccc(OS(=O)(=O)F)cc3P(C)(C)=O)n1)C(C)N(C)CC2 (single isomer, unassigned; isomer 1) [Example 29, 4-((5-Chloro-2-((6-methoxy-1,2-dimethyl-1,2,3,4-tetrahydroisoquinolin-7-yl)amino)pyrimidin-4-yl)amino)-3-(dimethylphosphoryl)phenyl sulfofluoridate dihydrochloride (Isomer 1)]",76.5,76.9,< 50,–
"COc1nc2c(cc1Nc1ncc(Cl)c(Nc3ccc(OS(=O)(=O)F)cc3P(C)(C)=O)n1)CN(C)CC2 [Example 22, 4-((5-Chloro-2-((2-methoxy-6-methyl-5,6,7,8-tetrahydro-1,6-naphthyridin-3-yl)amino)pyrimidin-4-yl)amino)-3-(dimethylphosphoryl)phenyl sulfofluoridate]",–,–,–,% Inhibition at 1 μM: 75.12%; % Inhibition at 10 μM: 82.60%; IC50 (read-out: IC50): < 50 nM
"COc1cc2c(cc1Nc1ncc(Cl)c(Nc3ccc(OS(=O)(=O)F)cc3P(C)(C)=O)n1)CNCC2 [Example 38, 4-((5-Chloro-2-((6-methoxy-1,2,3,4-tetrahydroisoquinolin-7-yl)amino)pyrimidin-4-yl)amino)-3-(dimethylphosphoryl)phenylsulfofluoridate dihydrochloride]",84.5,85.7,< 50,–
"COc1cc2c(cc1Nc1ncc(Cl)c(Nc3ccc(OS(=O)(=O)F)nc3P(C)(C)=O)n1)CN(C)CC2 [Example 21, 5-((5-Chloro-2-((6-methoxy-2-methyl-1,2,3,4-tetrahydroisoquinolin-7-yl)amino)pyrimidin-4-yl)amino)-6-(dimethylphosphoryl)pyridin-2-yl sulfofluoridate dihydrochloride]",79.2,81.6,< 50,–
"CN1CCc2cc(F)c(Nc3ncc(Cl)c(Nc4ccc(OS(=O)(=O)F)cc4P(C)(C)=O)n3)cc2C1 [Example 26, 4-((5-Chloro-2-((6-fluoro-2-methyl-1,2,3,4-tetrahydroisoquinolin-7-yl)amino)pyrimidin-4-yl)amino)-3-(dimethylphosphoryl)phenyl sulfofluoridate dihydrochloride]",75.8,76.5,< 50,–
"COc1cc2c(cc1Nc1ncc(Cl)c(Nc3cc(OS(=O)(=O)F)ccc3P(C)(C)=O)n1)C(C)N(C)CC2 (single isomer, unassigned; isomer 2) [Example 32, 3-((5-Chloro-2-((6-methoxy-1,2-dimethyl-1,2,3,4-tetrahydroisoquinolin-7-yl)amino)pyrimidin-4-yl)amino)-4-(dimethylphosphoryl)phenyl sulfofluoridate dihydrochloride (Isomer 2)]",–,–,–,IC50: < 50 nM; % Inhibition at 1 μM (1 µM): 84.51%; % Inhibition at 10 μM (10 µM): 89.25%
